Among the data in ChEMBL document CHEMBL1131712, “Short synthesis and anti-rhinoviral activity of imidazo[1,2-a]pyridines: the effect of acyl groups at 3-position” (Bioorg Med Chem Lett, 1999) are IC50 and CC50 values, retold here.

As a reminder, the IC50 is the concentration that inhibits the measured activity by half. A low value points to greater potency in that assay.

One data set has as its system rhinovirus B14. Nature of the data set: Inhibitory concentration required against Human rhinovirus-14 (HRV-14) using plaque reduction assay. To be noted: Rhinovirus B. The data set is classed as functional, organism-based, Enterovirus. (Plaque reduction counts the foci of infection that form in a cell layer.)
Data set [1] in a line: Cellular toxic concentration against Human rhinovirus-14 (HRV-14) using cytopathic effect assay(CPE/XTT). In kind it is organism-based, Enterovirus. To be noted: read-out: TC50 (the source's name). (In general: Cytopathic effects are the visible damage that an infection or toxin causes in cultured cells.)

Converted amounts (≈) assume the structure as drawn.

Turning to `CNC(=O)/C=C(\c1ccccc1)c1ccc2nc(N)c(C(=O)c3ccc(F)cc3)n2c1`, the IC50 with rhinovirus B14 was determined as 0.37 µg/mL (≈ 0.893 µM). Also, the CC50 in data set [1] is 3.97 µg/mL (≈ 9.58 µM). For `CNC(=O)/C=C(\c1ccccc1)c1ccc2nc(N)c(C(=O)c3ccccc3)n2c1` the same measures were 0.24 µg/mL (≈ 0.605 µM) and 2.95 µg/mL (≈ 7.44 µM). Taken in the same sequence, the figures for `CNC(=O)/C=C(\c1ccccc1)c1ccc2nc(N)c(C(C)=O)n2c1` were 2.48 µg/mL (≈ 7.42 µM) and 22.8 µg/mL (≈ 68.2 µM). In the case of `CNC(=O)/C=C(\c1ccccc1)c1ccc2nc(N)c(C(=O)C(C)(C)C)n2c1`, the IC50 in the data set on rhinovirus B14 is 0.17 µg/mL (≈ 0.452 µM). Besides, the CC50 in data set [1] was over 10 µg/mL.

As for `CC(C)S(=O)(=O)n1c(N)nc2ccc(/C(=N/O)c3ccccc3)cc21` [ENVIROXIME], half-maximal inhibition in the data set on rhinovirus B14 (IC50) required 0.045 µg/mL (≈ 0.126 µM).
